The data set is described as follows: Release of IR3535 from cast polyurethane matrix, with and without heating activation. In kind it is physicochemical. The procedure: For the matrix, the same inputs are used as in Example 1. The PMEO is replaced by insecticide (IR3535®), which represents 30% by weight in relation to the total weight of the matrix.
The electronic card is programmed as in Example 2 except that the heating is systematically cut off when the intra-matrix temperature reaches 150° C.
FIG. 4 represents the reference release profile of IR3535® which is a non-volatile substance at ambient temperature. […] The sequential and successive activations were performed for 18 hours at a rate of 10 minutes heating followed by 20 minutes' pause. The intra-matrix temperature measured was 45° C.

Take `CCCCN(CCC(=O)OCC)C(C)=O` [IR3535®, ethyl-3-acetyl(butyl)amino-propanoate]: the “residual quantity of IR3535 in relation to the quantity initially incorporated” value (after 590 sequences of heating) is reported as 9.5 % by weight. The “release of IR3535 initially incorporated” value (after 18 hours, sequential activations 10 min heating / 20 min pause, intra-matrix 45° C., cast polyurethane matrix) is “up to 3 % by weight”. For the same compound, where the note is “same polyurethane matrix unheated at ambient temperature, even after 20 hours”, the “release of IR3535 by passive diffusion” value is “releases absolutely nothing”. Besides, the “average quantity of IR3535 released” value (solely at moments of activation, cast polyurethane matrix) stood at 3.5 mg/h.
